23 compounds from patent US7399777B2, “Diarylcycloalkyl derivatives, processes for their preparation and their use as pharmceuticals” (Sanofi-Aventis Deutschland GmbH, priority 2001, dated 2008) can be followed below.

In the experiment the target is T1, human PPARα (Homo sapiens, UniProt Q07869).
T1 construct: expressed in transfected cells; host or cells: HEK cells (human embryo kidney), stably transfected with pcDNA3-GR-GAL4-humanPPARα and the luciferase reporter pdeltaMG4LZ
T1 sequence (Q07869 167-468): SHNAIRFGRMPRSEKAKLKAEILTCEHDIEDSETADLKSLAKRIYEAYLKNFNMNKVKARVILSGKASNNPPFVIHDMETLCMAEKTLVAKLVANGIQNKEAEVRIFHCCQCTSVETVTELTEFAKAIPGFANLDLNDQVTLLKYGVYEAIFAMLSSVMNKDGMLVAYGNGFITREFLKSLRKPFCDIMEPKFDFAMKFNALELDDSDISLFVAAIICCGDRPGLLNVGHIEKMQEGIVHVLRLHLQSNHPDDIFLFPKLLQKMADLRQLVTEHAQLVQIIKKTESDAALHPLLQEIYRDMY
Put plainly: PPARα reporter cell line assay (stably transfected HEK cells, GR-GAL4-PPARα fusion protein, firefly luciferase reporter). Particulars: agonist activity in HEK PPARα reporter cell line; 24 h incubation; luciferase luminescence. It is filed as cell-based. The source says:
To analyze the effectiveness of substances which bind to human PPARα, activating it in agonistic manner, a stable transfected HEK cell line (HEK=human embryo kidney) designated here as “PPARα reporter cell line” is used. It contains two genetic elements, a firefly luciferase reporter element and a PPARα fusion protein (GR-GAL4-PPARα) which controls the expression of the firefly luciferase reporter element in a PPARα ligand dependent way.
The PPARα reporter cell line was established in two steps: First, the firefly luciferase reporter element was constructed and stably transfected into HEK cells. Five DNA binding sites for the yeast transcription factor GAL4 (five repetitions of the sequence 5′-CGGAGTACTGTCCTCCGAG-3′) (SEQ ID NO:1) were cloned 5′ upstream of a 68 bp minimal RNA polymerase II promoter from the GR mouse mammary tumor virus long terminal repeat (accession # V01175) providing a CCAAT-box as well as a TATA-element. Cloning and sequencing was done as described by Sambrook J. et. al. (Molecular cloning, Cold Spring Harbor Laboratory Press, 1989). The complete Photinus pyralis luciferase gene (accession # M 15077) was cloned 3′ downstream of the GAL4 binding sites and the MMTV minimal promoter. The firefly luciferase reporter element consisting of 5 GAL4 binding sites, the MMTV minimal promoter and the full length luciferase gene was recloned into a plasmid backbone harboring a Zeozin resistence gene leading to plasmid “pdeltaMG4LZ”. This vector was transfected in HEK cells as described by Ausubel, F. M. et al. (Current protocols in molecular biology, Vol. 1-3, John Wiley & Sons, Inc., 1995). Stable clones have been selected using Zeozin as a selection agent (0.5 mg/ml).
In a second step, the PPARα fusion protein (GR-GAL4-PPARα) that controls expression of the firefly luciferase reporter element, was stably integrated in this cell background. For this purpose the cDNAs coding for the N-terminal 76 amino acids of the human glucocorticoid receptor (“GR”, accession # P04150) have been linked to amino acids 1-147 of the yeast GAL4-protein (accession # P04386) followed by the ligand binding domain of humanPPARα (amino acids S167-Y468, accession # S74349). The GR-GAL4-human PPARα construct was cloned into plasmid pcDNA3 (Invitrogen) were its expression is driven constitutively by the Cytomegalovirus promoter. The plasmid pcDNA3-GR-GAL4-humanPPARα was transfected in a stable HEK-cell clone that already contained the firefly luciferase reporter element described above. A double-transfected cell line containing both, the firefly luciferase reporter element as well as the GR-GAL4-humanPPARα fusion protein, has been selected on medium supplemented with Zeozin (0.5 mg/ml) and G418 (0.5 mg/ml).
The activity of PPARα agonists is determined in a three day test, described below:
The PPARα reporter cell line is cultivated up to 80% confluence in DMEM medium (# 41965-039, Life Technologies) with the following additives: 10% cs-FCS (fetal calf serum, #SH-30068.03, Hyclone), antibiotics (0.5 mg/ml of zeozin [#R250-01, Invitrogen], 0.5 mg/ml of G418 [#10131-019, Life Technologies], 1% penicillin streptomycin solution [#15140-031, Life Technologies]) and 2 mM of L-glutamine (#25030-032, Life Technologies). Cultivation is carried out in standard cell culture bottles (# 33111, Becton Dickinson) in a cell culture incubator at 37° C. and 5% CO2. The 80% confluent cells are washed once with 30 ml of PBS (#14190-094, Life Technologies), treated with 2 ml of trypsin solution (#25300-054, Life Technologies) at 37° C. for 2 min, taken up in 5 ml of the medium described above and counted in a cell counter. After dilution to 500,000 cells/ml, in each case 35,000 cells are sown into each well of a 96-well microtiter plate having a clear plastic bottom (#3610, Coming Costar). The plates are incubated in a cell incubator at 37° C. and 5% CO2 for 24 h.
The PPARα agonists to be tested are dissolved in DMSO at a concentration of 10 mM. […]
Usually EC50 stands for the midpoint of the concentration-response curve. `Cc1cccc(CO[C@@H]2CCC[C@H](OCc3nc(-c4ccc(C(C)C)cc4)oc3C)C2)c1C(=O)O` [Example LXIX, 2-Methyl-6-[(1R,3S)-3-(5-methyl-2-(4-(2-propyl)-phenyl)-oxazol-4-ylmethoxy)-cyclohexyloxymethyl]-benzoic acid]: the response was half-maximal at 0.11 nM (EC50).

The compound `COc1cccc(-c2nc(CO[C@H]3CCC[C@@H](OCc4cccc(C)c4C(=O)O)C3)c(C)o2)c1` [IL, 2-{1R,3S-3-[2-(3-Methoxy-phenyl)-5-methyl-oxazol-4-ylmethoxy]-cyclohexyloxymethy}-6-methylbenzoic acid] yielded an EC50 of 0.52 nM.

As for `Cc1ccc(-c2nc(CO[C@H]3CCC[C@@H](OCc4cccc(C)c4C(=O)O)C3)c(C)o2)cc1C` [LIV, 2-{1R,3S-3-[2-(3,4-Dimethylphenyl)-5-methyloxazol-4-ylmethoxy]cyclohexyloxymethyl}-6-methylbenzoic acid], the EC50 was determined as 0.08 nM.

Compound `COc1ccc(-c2nc(CO[C@@H]3CCC[C@H](OCc4cccc(C)c4C(=O)O)C3)c(C)o2)cc1` [LXV, 2-{1S,3R-3-[2-(4-Methoxyphenyl)-5-methyloxazol-4-ylmethoxy]cyclohexyloxymethyl}-6-methylbenzoic acid] yielded an EC50 of 1.1 nM.

In the case of `Cc1cccc(CO[C@@H]2CCC[C@H](OCc3nc(-c4ccc(Cl)cc4)oc3C)C2)c1C(=O)O` [LII, 2-{1R,3S-3-[2-(4-Chlorophenyl)-5-methyloxazol-4-ylmethoxy]cyclohexyloxymethyl}-6-methylbenzoic acid], the EC50 came out at 0.1 nM.

`Cc1ccccc1-c1nc(CO[C@H]2CCC[C@@H](OCc3cccc(C)c3C(=O)O)C2)c(C)o1` [LVI, 2-{1R,3S-3-[2-(2-Methylphenyl)-5-methyloxazol-4-ylmethoxy]cyclohexyloxymethyl}-6-methylbenzoic acid] gave an EC50 of 0.54 nM.

For `COc1ccc(-c2nc(CO[C@H]3CCC[C@@H](OCc4cccc(C)c4C(=O)O)C3)c(C)o2)cc1` [LXIV, 2-{1R,3S-3-[2-(4-Methoxyphenyl)-5-methyloxazol-4-ylmethoxy]cyclohexyloxymethyl}-6-methylbenzoic acid], the concentration for a half-maximal effect (EC50) is 0.13 nM.

As for `Cc1cccc(CO[C@H]2CCC[C@@H](OCc3nc(-c4ccc(F)cc4)oc3C)C2)c1C(=O)O` (stereo in doubt) [Example X, cis-2-{3-[2-(4-Fluorophenyl)-5-methyloxazol-4-ylmethoxy]cyclohexyloxymethyl}-6-methylbenzoic acid], a half-maximal effect (EC50) was put at 0.5 nM.

Compound `Cc1cccc(CO[C@H]2CCC[C@@H](OCc3coc(-c4ccccc4)n3)C2)c1C(=O)O` (single isomer, unassigned) [VI, cis-2-Methyl-6-[3-(2-phenyloxazol-4-ylmethoxy)cyclohexyloxymethyl]benzoic acid] showed an EC50 of 0.18 nM.

For `Cc1cccc(CO[C@H]2CCC[C@@H](OCc3nc(-c4ccccc4)oc3C)C2)c1C(=O)O` [Example LXI, 2-Methyl-6-[1S,3R-3-(5-methyl-2-phenyloxazol-4-ylmethoxy)cyclohexyloxymethyl]benzoic acid], the midpoint of the response, the EC50, lay at 10 nM.

In turn, `Cc1ccc(-c2nc(CO[C@H]3CCC[C@@H](OCc4cccc(C)c4C(=O)O)C3)c(C)o2)c(C)c1` [LV, 2-{1R,3S-3-[2-(2,4-Dimethylphenyl)-5-methyloxazol-4-ylmethoxy]cyclohexyloxymethyl}-6-methylbenzoic acid] returned an EC50 of 0.09 nM.

The compound `Cc1ccc(-c2nc(CO[C@H]3CCC[C@@H](OCc4cccc(C)c4C(=O)O)C3)co2)cc1` (stereo in doubt) [VIII, cis-2-Methyl-6-[3-(2-p-tolyloxazol-4-ylmethoxy)cyclohexyloxymethyl]benzoic acid] registered an EC50 of 0.04 nM.

With `Cc1cccc(CO[C@@H]2CCC[C@H](OCc3nc(-c4cccc(Br)c4)oc3C)C2)c1C(=O)O` [LXVI, 2-{1R,3S-3-[2-(3-Bromophenyl)-5-methyloxazol-4-ylmethoxy]cyclohexyloxymethyl}-6-methylbenzoic acid], the EC50 amounted to 0.48 nM.

Compound `Cc1cccc(-c2nc(CO[C@H]3CCC[C@@H](OCc4cccc(C)c4C(=O)O)C3)c(C)o2)c1` [LIII, 2-{1R,3S-3-[2-(3-Methylphenyl)-5-methyloxazol-4-ylmethoxy]cyclohexyloxymethyl}-6-methylbenzoic acid] had an EC50 of 0.4 nM.

Compound `COc1ccc(-c2nc(CO[C@H]3CCC[C@@H](OCc4cccc(C)c4C(=O)O)C3)co2)cc1` (relative stereo) [IV, cis-2-(3-(2-(4-Methoxyphenyl)oxazol-4-ylmethoxy)cyclohexyloxymethyl)-6-methylbenzoic acid] showed an EC50 of 0.3 nM.

As to `COc1ccc(-c2nc(CO[C@H]3CCC[C@@H](OCc4cccc(C)c4C(=O)O)C3)c(C)o2)cc1C` [LXXII, 2-[(1R,3S)-3-(2-(4-methoxy-3-methylphenyl)-5-methyl-oxazol-4-ylmethoxy)-cyclohexyloxymethyl]-6-methyl-benzoic acid], it took 0.24 nM to reach a half-maximal effect (EC50).

With `Cc1cccc(CO[C@@H]2CCC[C@H](OCc3nc(-c4cccc(OC(F)(F)F)c4)oc3C)C2)c1C(=O)O` [LVII, 2-{1R,3S-3-[2-(3-Trifluoromethoxyphenyl)-5-methyloxazol-4-ylmethoxy]cyclohexyloxymethyl}-6-methylbenzoic acid], the EC50 turned out to be 0.13 nM.

The compound `Cc1cccc(CO[C@@H]2CCC[C@H](OCc3nc(-c4cccc(Cl)c4)oc3C)C2)c1C(=O)O` [LI, 2-{1R,3S-3-[2-(3-Chlorophenyl)-5-methyloxazol-4-ylmethoxy]cyclohexyloxymethyl}-6-methylbenzoic acid] displayed an EC50 of 0.31 nM.

On to `Cc1cccc(CO[C@@H]2CCC[C@H](OCc3nc(-c4ccc(OC(F)(F)F)cc4)oc3C)C2)c1C(=O)O` [LXX, 2-methyl-6-[(1R,3S)-3-(5-methyl-2-(4-trifluoromethoxyphenyl)-oxazol-4-ylmethoxy)-cyclohexyloxymethyl]-benzoic acid], for which a half-maximal effect (EC50) was put at 0.28 nM.

Take `Cc1cccc(CO[C@@H]2CCC[C@H](OCc3nc(-c4ccc(F)cc4)oc3C)C2)c1C(=O)O` (stereo in doubt) [IX, cis-2-(3-[2-(4-Fluorophenyl)-5-methyloxazol-4-ylmethoxy]cyclohexyloxymethyl}-6-methylbenzoic acid]: the EC50 is 0.04 nM.

In turn, “2-{3-[2-(4-Fluorophenyl)oxazol-4-ylmethoxy]cyclohexyloxy}-6-methylbenzoic acid [Example I]” yielded an EC50 of 1 nM.

`COc1ccc(-c2nc(CO[C@H]3CCC[C@@H](OCc4cccc(C)c4C(=O)O)C3)c(C)o2)cc1OC` [LVIII, 2-{1R,3S-3-[2-(3,4-Dimethoxyphenyl)-5-methyloxazol-4-ylmethoxy]cyclohexyloxymethyl}-6-methylbenzoic acid] showed an EC50 of 0.46 nM.

As to `Cc1cccc(CO[C@@H]2CCC[C@H](COCc3coc(-c4ccc(F)cc4)n3)C2)c1C(=O)O` (racemic) [Example XXIV, rac-cis-2-{3-[2-(4-Fluorophenyl)oxazol-4-ylmethoxymethyl]cyclohexyloxymethyl}-6-methylbenzoic acid], a half-maximal effect (EC50) was put at 0.9 nM.
